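In this assay, cells in 96-well plates receive the compound at five concentrations for 48 hours. Endpoints are linearly interpolated between the surrounding concentrations. Abbreviation: GI50, concentration required for 50% inhibition of growth.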 Calls of active or inactive are those of the source. No stated cut-off is given here; in the data, active = GI50 up to about 1.1 µM and inactive = higher.
Tests used:
Experiment in all cases: growth of human tumour cells (NCI), 48 h
K562 = test system: K562
MOLT-4 = test system: MOLT-4
HOP-92 = test system: HOP-92
SF-295 = test system: SF-295
HCC 2998 = test system: HCC 2998
HCT-15 = test system: HCT-15
SK-MEL-28 = test system: SK-MEL-28
NCI-H522 = test system: NCI-H522
NCI-H460 = test system: NCI-H460
PC-3 = test system: PC-3
TK-10 = test system: TK-10
UACC-62 = test system: UACC-62
NCI-H226 = test system: NCI-H226
NCI-H23 = test system: NCI-H23
LOX IMVI = test system: LOX IMVI
786-0 = test system: 786-0
RXF 393 = test system: RXF 393
HT-29 = test system: HT-29
A498 = test system: A498
M14 = test system: M14

SMILES	GI50 (K562)	GI50 (MOLT-4)	GI50 (HOP-92)	GI50 (SF-295)	GI50 (HCC 2998)	GI50 (HCT-15)	GI50 (SK-MEL-28)	GI50 (NCI-H522)	GI50 (NCI-H460)	GI50 (PC-3)	GI50 (TK-10)	GI50 (UACC-62)	GI50 (NCI-H226)	GI50 (NCI-H23)	GI50 (LOX IMVI)	GI50 (786-0)	GI50 (RXF 393)	GI50 (HT-29)	GI50 (A498)	GI50 (M14)
Nc1nc(Cl)cc(NCC2(O)CCC2)n1	> 100 µM (inactive)	> 100 µM (inactive)	> 100 µM (inactive)	> 100 µM (inactive)	> 100 µM (inactive)	> 100 µM	> 100 µM (inactive)	> 100 µM (inactive)	> 100 µM (inactive)	> 100 µM (inactive)	> 100 µM (inactive)	> 100 µM (inactive)	> 100 µM (inactive)	> 100 µM (inactive)	> 100 µM (inactive)	> 100 µM (inactive)	> 100 µM (inactive)	> 100 µM (inactive)	> 100 µM (inactive)	
c1cc(NC2=NCCO2)c2c(c1)OCO2	> 100 µM (inactive)	> 100 µM (inactive)	> 100 µM (inactive)	> 100 µM (inactive)	> 100 µM (inactive)	> 100 µM	> 100 µM (inactive)	> 100 µM (inactive)	> 100 µM (inactive)	> 100 µM (inactive)		> 100 µM (inactive)	> 100 µM (inactive)	> 100 µM (inactive)	> 100 µM (inactive)	> 100 µM (inactive)	> 100 µM (inactive)	> 100 µM (inactive)	> 100 µM (inactive)	> 100 µM (inactive)
NNC(=O)CC(=O)Nc1ccc(Cl)cc1	48.6 µM (inactive)	> 100 µM (inactive)	> 100 µM (inactive)	> 100 µM (inactive)	> 100 µM (inactive)	34.7 µM	> 100 µM (inactive)	> 100 µM (inactive)	> 100 µM (inactive)	> 100 µM (inactive)	> 100 µM (inactive)	> 100 µM (inactive)	> 100 µM (inactive)	> 100 µM (inactive)	34.1 µM (inactive)	> 100 µM (inactive)	> 100 µM (inactive)	> 100 µM (inactive)	> 100 µM (inactive)	
CCOC(=O)c1ccc(/N=C2\Sc3nc4ccccc4n3\C2=N\c2ccc(C(=O)OCC)cc2)cc1		9.77 µM (inactive)	12.8 µM (inactive)	16.2 µM (inactive)	41.8 µM (inactive)	51.4 µM	39.2 µM (inactive)	24.7 µM (inactive)	22.5 µM (inactive)	37.7 µM (inactive)	17.3 µM (inactive)	16.1 µM (inactive)	29.2 µM (inactive)	22.6 µM (inactive)	14.2 µM (inactive)	11.8 µM (inactive)	28.8 µM (inactive)	19.6 µM (inactive)	34.3 µM (inactive)	16 µM (inactive)
NC(=O)C/C=C/CC(N)=O		0.259 µM (active)	> 100 µM (inactive)	> 100 µM (inactive)	> 100 µM (inactive)	> 100 µM	> 100 µM (inactive)	> 100 µM (inactive)	> 100 µM (inactive)	> 100 µM (inactive)	> 100 µM (inactive)	> 100 µM (inactive)	> 100 µM (inactive)	> 100 µM (inactive)	> 100 µM (inactive)	> 100 µM (inactive)	> 100 µM (inactive)	> 100 µM (inactive)	> 100 µM (inactive)	> 100 µM (inactive)
CO[C@@](c1ccccc1)(c1nc(C#N)c(N)o1)C(F)(F)F	33.7 µM (inactive)	82.2 µM (inactive)	44.7 µM (inactive)	> 100 µM (inactive)	> 100 µM (inactive)	85.9 µM	> 100 µM (inactive)	26.6 µM (inactive)		> 100 µM (inactive)	> 100 µM (inactive)	77.4 µM (inactive)	> 100 µM (inactive)	> 100 µM (inactive)	> 100 µM (inactive)	> 100 µM (inactive)	> 100 µM (inactive)		> 100 µM (inactive)	> 100 µM (inactive)

— ChEMBL document CHEMBL1201862, “PubChem BioAssay data set” (2004)
